Experimental data: patent US20110262477A1 (priority 2008, published 2011)

Assays:
[1] = test system: Nc1ncnc2c1ncn2[C@@H]1O[C@H](COP(=O)(O)O)[C@@H](O)[C@H]1O; experiment: purified protein, by the assay type; conditions: pH 7.5; 37.0 °C
S. aureus = conditions: individual subunit vaccine antigens; none afforded complete protection; cited from earlier work
[2] = biological target: T1, 5′-nucleotidases from rat liver membrane (Rattus norvegicus, UniProt P21588); conditions: Uchino et al., 1986; cited from earlier work
T1 sequence (P21588 29-551): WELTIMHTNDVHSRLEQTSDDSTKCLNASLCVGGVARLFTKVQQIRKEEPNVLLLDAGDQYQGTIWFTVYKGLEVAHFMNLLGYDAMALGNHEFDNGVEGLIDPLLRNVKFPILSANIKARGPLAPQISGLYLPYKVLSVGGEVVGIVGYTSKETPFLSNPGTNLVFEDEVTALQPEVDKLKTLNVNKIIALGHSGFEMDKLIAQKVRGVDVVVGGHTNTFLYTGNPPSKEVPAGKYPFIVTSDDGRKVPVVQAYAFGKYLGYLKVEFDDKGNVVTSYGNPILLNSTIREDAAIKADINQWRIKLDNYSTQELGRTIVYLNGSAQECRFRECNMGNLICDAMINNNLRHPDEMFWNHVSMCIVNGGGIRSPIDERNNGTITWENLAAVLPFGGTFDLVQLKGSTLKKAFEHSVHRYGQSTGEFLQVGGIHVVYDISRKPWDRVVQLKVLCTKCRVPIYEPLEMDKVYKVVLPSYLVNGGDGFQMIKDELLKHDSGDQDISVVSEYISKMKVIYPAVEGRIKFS

[3] = test system: 5′-nucleotidases from snake venom; conditions: Uchino et al., 1986; cited from earlier work
AdsA = assay type: biochemical, S. aureus
[4] = biological target: T2, 5′-ecto nucleotidase (human homologue of bacterial AdsA) (Homo sapiens, UniProt P21589); conditions: cited from earlier work
T2 sequence (P21589 27-549): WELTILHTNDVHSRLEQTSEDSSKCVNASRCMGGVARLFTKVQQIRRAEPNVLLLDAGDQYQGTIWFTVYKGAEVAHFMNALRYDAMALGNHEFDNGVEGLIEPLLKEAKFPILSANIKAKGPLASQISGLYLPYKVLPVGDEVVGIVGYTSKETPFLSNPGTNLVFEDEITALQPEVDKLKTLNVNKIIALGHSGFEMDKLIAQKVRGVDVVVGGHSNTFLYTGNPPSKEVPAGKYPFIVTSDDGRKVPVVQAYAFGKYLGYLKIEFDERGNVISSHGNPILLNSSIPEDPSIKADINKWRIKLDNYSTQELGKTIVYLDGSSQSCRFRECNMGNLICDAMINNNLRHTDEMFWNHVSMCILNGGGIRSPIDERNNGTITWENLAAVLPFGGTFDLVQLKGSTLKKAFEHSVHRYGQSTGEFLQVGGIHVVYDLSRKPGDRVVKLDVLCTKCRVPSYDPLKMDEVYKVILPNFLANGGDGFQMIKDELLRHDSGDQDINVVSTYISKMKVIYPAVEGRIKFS

[5] = test system: secreted 5′-nucleotidases from trophozoites of Trichomonas gallinae; conditions: Borges et al., 2007; cited from earlier work
[6] = test system: adsA mutant staphylococci; experiment: Survival of adsA staphylococci in rat blood with added adenosine (FIG. 17F); assay type: cell-based, S. aureus; conditions: addition of 1-100 μM adenosine
S. aureus Newman = experiment: Eap, Emp vaccination, murine renal abscess model (FIG. 5); conditions: for histological lesions: kidneys of immunized mice, PBS mock 4/5, FIG. 5E

Staphylococcus aureus adenosine synthase A (AdsA, SasH), purified soluble recombinant form AdsA1-400 (from GST-AdsA expressed in Escherichia coli), SEQ ID NO:36 (Staphylococcus aureus subsp. aureus NCTC 8325)
Km [1]: 0.044 µM

IsdB: purified S. aureus sortase A substrate surface protein used as subunit vaccine antigen
reduction in bacterial load (S. aureus): significant reduction in bacterial load

SdrE: purified S. aureus sortase A substrate surface protein used as subunit vaccine antigen
reduction in bacterial load (S. aureus): significant reduction in bacterial load

nucleoticidin
inhibitory activity against 5′-nucleotidases [2]: potent inhibitory activity
inhibitory activity against 5′-nucleotidases [3]: potent inhibitory activity

[Cl-].[Cl-].[Zn+2] [ZnCl2]
inhibition of adenosine synthase activity (AdsA): completely inhibited

O=S(=O)([O-])[O-].[Cu+2] [CuSO4]
inhibition of adenosine synthase activity (AdsA): completely inhibited

Nc1ncnc2c1ncn2[C@@H]1O[C@H](COP(=O)(O)CP(=O)(O)O)[C@@H](O)[C@H]1O [AOPCP, α,β-methylene adenosine 5′-diphosphate]
inhibition of 5′-ecto nucleotidase [4]: inhibitor
inhibition of secreted 5′-nucleotidases [5]: does not inhibit

melanocidins A and B
inhibitory activity against 5′-nucleotidases [2]: potent inhibitory activity
inhibitory activity against 5′-nucleotidases [3]: potent inhibitory activity

SdrD: purified S. aureus sortase A substrate surface protein used as subunit vaccine antigen
reduction in bacterial load (S. aureus): significant reduction in bacterial load

Nc1ncnc2c1ncn2[C@@H]1O[C@H](CO)[C@@H](O)[C@H]1O [adenosine]
survival of adsA mutant staphylococci in blood [6]: dose-dependent increase in the survival

B1: Emp: recombinant His-tagged staphylococcal envelope associated protein Emp (SEQ ID NO:2) purified from E. coli, vaccine antigen (protein, listed as Staphylococcus aureus)
chain: MKKKLLVLTMSTLFATQIMNSNHAKASVTESVDKKFVVPESGINKIIPAYDEFKNSPKVNVSNLTDNKNFVASEDKLNKIADSSAASKIVDKNFVVPESKLGNIVPEYKEINNRVNVATNNPASQQVDKHFVAKGPEVNRFITQNKVNHHFITTQTHYKKVITSYKSTHVHKHVNHAKDSINKHFIVKPSESPRYTHPSQSLIIKHHFAVPGYHAHKFVTPGHASIKINHFCVVPQINSFKVIPPYGHNSHRMHVPSFQNNTTATHQNAKVNKAYDYKYFYSYKVVKGVKKYFSFSQSNGYKIGKPSLNIKNVNYQYAVPSYSPTHYVPEFKGSLPAPRV
modifications: His-tag
titers of reactive IgG (S. aureus Newman; ELISA IgG titers from vaccinated mice, FIG. 5D): > 64,000
histological lesions (S. aureus Newman): 1/5

B2: Eap: recombinant His-tagged staphylococcal envelope associated protein Eap (SEQ ID NO:4) purified from E. coli, vaccine antigen (protein, listed as Staphylococcus aureus)
chain: MKFKSLITTTLALGVLASTGANFNNNEASAAAKPLDKSSSSLHHGYSKVHVPYAITVNGTSQNILSSLTFNKNQNISYKDLEDRVKSVLKSDRGISDIDLRLSKQAKYTVYFKNGTKKVIDLKAGIYTADLINTSEIKAININVDTKKQVEDKKKDKANYQVPYTITVNGTSQNILSNLTFNKNQNISYKDLEDKVKSVLESNRGITDVDLRLSKQAKYTVNFKNGTKKVIDLKSGIYTANLINSSDIKSININVDTKKHIENKAKRNYQVPYSINLNGTSTNILSNLSFSNKPWTNYKNLTSQIKSVLKHDRGISEQDLKYAKKAYYTVYFKNGGKRILQLNSKNYTANLVHAKDVKRIEITVKTGTKAKADRYVPYTIAVNGTSTPILSDLKFTGDPRVGYKDISKKVKSVLKHDRGIGERELKYAKKATYTVHFKNGTKKVININSNISQLNLLYVQDIKKIDIDVKTGTKAKADSYVPYTIAVNGTSTPILSKLKISNKQLISYKYLNDKVKSVLKSERGISDLDLKFAKQAKYTVYFKNGKKQVVNLKSDIFTPNLFSAKDIKKIDIDVKQYTKSKKNK
modifications: His-tag
histological lesions (S. aureus Newman): 1/5

B3: IsdA: purified S. aureus sortase A substrate surface protein used as subunit vaccine antigen (protein, listed as Staphylococcus sp.)
chain: MTKHYLNSKYQSEQRSSAMKKITMGTASIILGSLVYIGADSQQVNAATEATNATNNQSTQVSQATSQPINFQVQKDGSSEKSHMDDYMQHPGKVIKQNNKYYFQTVLNNASFWKEYKFYNANNQELATTVVNDNKKADTRTINVAVEPGYKSLTTKVHIVVPQINYNHRYTTHLEFEKAIPTLADAAKPNNVKPVQPKPAQPKTPTEQTKPVQPKVEKVKPTVTTTSKVEDNHSTKVVSTDTTKDQTKTQTAHTVKTAQTAQEQNKVQTPVKDVATAKSESNNQAVSDNKSQQTNKVTKHNETPKQASKAKELPKTGLTSVDNFISTVAFATLALLGSLSLLLFKRKESK
reduction in bacterial load (S. aureus): significant reduction in bacterial load
